Data from patent publication US11976083B2, “Inhibitors of peptidylarginine deiminases” (Gilead Sciences, Inc., priority 2020, dated 2024).

These compounds were tested against T1, human PAD4 (Homo sapiens, UniProt Q9UM07) (assay: In vitro PAD4 BAEE biochemical assay). Conditions: BAEE substrate 3 mM, 5 nM PAD4, 2 mM calcium chloride; geometric mean of multiple experiments.
T1 construct: human PAD4 (NM_012387), A2-P663, was PCR amplified; His-SUMO (N, cleaved yes); made in house; host or cells: E. coli BL21(DE3)
Procedure, shortened: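 Fluorescence read-out (ex 405/em 535 nm) of isoindole formed from ammonia, o-phthalaldehyde and DTT after EDTA stop. Reaction: 5 nM PAD4, 2 mM CaCl2, 3 mM BAEE, 2 h, 25 °C, after 30 min enzyme–compound preincubation. Normalised to BB-Cl-Amidine (50 µM) and DMSO controls.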

T1 sequence (Q9UM07 2-663): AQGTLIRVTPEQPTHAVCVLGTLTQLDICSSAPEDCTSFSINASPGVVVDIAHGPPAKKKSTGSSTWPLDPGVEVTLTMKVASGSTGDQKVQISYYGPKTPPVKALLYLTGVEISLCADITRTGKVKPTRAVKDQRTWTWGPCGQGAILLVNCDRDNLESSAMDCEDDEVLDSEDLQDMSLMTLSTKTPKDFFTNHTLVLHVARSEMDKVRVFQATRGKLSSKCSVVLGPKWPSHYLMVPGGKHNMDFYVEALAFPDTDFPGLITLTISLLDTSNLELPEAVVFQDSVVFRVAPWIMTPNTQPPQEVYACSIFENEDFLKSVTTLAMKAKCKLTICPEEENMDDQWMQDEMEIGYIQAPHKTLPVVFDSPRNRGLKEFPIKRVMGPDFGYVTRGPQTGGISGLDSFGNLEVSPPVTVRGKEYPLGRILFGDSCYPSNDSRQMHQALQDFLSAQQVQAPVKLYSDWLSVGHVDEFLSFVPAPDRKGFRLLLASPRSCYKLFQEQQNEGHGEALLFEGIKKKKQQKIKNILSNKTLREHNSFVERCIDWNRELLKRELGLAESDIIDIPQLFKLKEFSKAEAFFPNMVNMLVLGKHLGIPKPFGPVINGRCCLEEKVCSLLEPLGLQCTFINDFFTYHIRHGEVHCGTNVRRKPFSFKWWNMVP

SMILES | IC50 [nM]
COc1cc(C(=O)N2[C@H]3CC[C@@H]2[C@H](N)C3)cc2nc(-c3cc4ccc5cc4n3CCCCCCCC(=O)N[C@@H]5C)n(C)c12 [Example 215, (11˜{R})-17-[5-[(1˜{R},2˜{R},4˜{S})-2-amino-7-azabicyclo[2.2.1]heptane-7-carbonyl]-7-methoxy-1-methyl-benzimidazol-2-yl]-11-methyl-1,10-diazatricyclo[10.5.2.0^{15,18}]nonadeca-12(19),13,15(18),16-tetraen-9-one] | 20
COc1cc(C(=O)N2[C@H]3CC[C@@H]2[C@H](N)C3)cc2nc(-c3cc4ccc5cc4n3CCCCCCC(C)(C)C(=O)N[C@@H]5C)n(C)c12 [Example 216, (11˜{R})-17-[5-[(1˜{R},2˜{R},4˜{S})-2-amino-7-azabicyclo[2.2.1]heptane-7-carbonyl]-7-methoxy-1-methyl-benzimidazol-2-yl]-8,8,11-trimethyl-1,10-diazatricyclo[10.5.2.0^{15,18}]nonadeca-12(19),13,15(18),16-tetraen-9-one] | 33
COc1cc(C(=O)N2[C@H]3CC[C@@H]2[C@H](N)C3)cc2nc(-c3cc4ccc5nc4n3CCCCC[C@@H](OC)C(C)(C)C(=O)N[C@@H]5C)n(C)c12 [Example 219, (7~{R},11~{R})-17-[5-[(1~{R},2~{R},4~{S})-2-amino-7-azabicyclo[2.2.1]heptane-7-carbonyl]-7-methoxy-1-methyl-benzimidazol-2-yl]-7-methoxy-8,8,11-trimethyl-1,10,19-triazatricyclo[10.5.2.0^{15,18}]nonadeca-12(19),13,15(18),16-tetraen-9-one] | 72
COc1cc(C(=O)N2[C@H]3CC[C@@H]2[C@H](N)C3)cc2nc(-c3cc4ccc5cc4n3CCCCCCC3(CC3)C(=O)N[C@@H]5C)n(C)c12 [Example 221, (11~{R})-17-[5-[(1~{R},2~{R},4~{S})-2-amino-7-azabicyclo[2.2.1]heptane-7-carbonyl]-7-methoxy-1-methyl-benzimidazol-2-yl]-11-methyl-spiro[1,10-diazatricyclo[10.5.2.0^{15,18}]nonadeca-12(19),13,15(18),16-tetraene-8,1′-cyclopropane]-9-one] | 32
COc1cc(C(=O)N2[C@H]3CC[C@@H]2[C@H](N)C3)cc2nc(-c3cc4ccc5cc4n3CCCCCOC(C)(C)C(=O)N[C@@H]5C)n(C)c12 [Example 222, (11~{R})-17-[5-[(1~{R},2~{R},4~{S})-2-amino-7-azabicyclo[2.2.1]heptane-7-carbonyl]-7-methoxy-1-methyl-benzimidazol-2-yl]-8,8,11-trimethyl-7-oxa-1,10-diazatricyclo[10.5.2.0^{15,18}]nonadeca-12(19),13,15(18),16-tetraen-9-one] | 64
COc1cc(C(=O)N2[C@H]3CC[C@@H]2[C@H](N)C3)cc2nc(-c3cc4ccc5cc4n3CCCCCCC3(CC3)C(=O)N[C@@H]5C)n(C3CC3)c12 [Example 225, (11~{R})-17-[5-[(1~{R},2~{R},4~{S})-2-amino-7-azabicyclo[2.2.1]heptane-7-carbonyl]-1-cyclopropyl-7-methoxy-benzimidazol-2-yl]-11-methyl-spiro[1,10-diazatricyclo[10.5.2.0^{15,18}]nonadeca-12(19),13,15(18),16-tetraene-8,1′-cyclopropane]-9-one] | 73
COc1cc(C(=O)N2[C@H]3CC[C@@H]2[C@H](N)C3)cc2nc(-c3cc4ccc5nc4n3CCCCCCNC(=O)CC5C)n(C)c12 (stereo partly shown) [Example 227, 17-[5-[(1˜{R},2˜{R},4˜{S})-2-amino-7-azabicyclo[2.2.1]heptane-7-carbonyl]-7-methoxy-1-methyl-benzimidazol-2-yl]-11-methyl-1,8,19-triazatricyclo[10.5.2.0^{15,18}]nonadeca-12(19),13,15(18),16-tetraen-9-one] | 154

Results, then the compound that gave them:

IC50 [nM] | SMILES
385 | COc1cc(C(=O)N2[C@H]3CC[C@@H]2[C@H](N)C3)cc2nc(-c3cc4ccc5nc4n3CCCCCCOc3ccccc3C(=O)N[C@@H]5C)c(C)n12 [Example 213, (2~{R})-19-[7-[(1~{R},2~{R},4~{S})-2-amino-7-azabicyclo[2.2.1]heptane-7-carbonyl]-5-methoxy-3-methyl-imidazo[1,2-a]pyridin-2-yl]-2-methyl-11-oxa-3,18,24-triazatetracyclo[16.5.2.0^{5,10}.0^ {21,25}]pentacosa-1(24),5(10),6,8,19,21(25),22-heptaen-4-one]
15 | COc1cc(C(=O)N2[C@H]3CC[C@@H]2[C@H](N)C3)cc2nc(-c3cc4ccc5nc4n3C[C@H]3C[C@@H]3COCCC(=O)N[C@@H]5C)c(C3CC3)n12 [Example 214, (3~{S),5~{S},12~{R})-18-[7-[(1~{R},2~{R},4~{S})-2-amino-7-azabicyclo[2.2.1]heptane-7-carbonyl]-3-cyclopropyl-5-methoxy-imidazo[1,2-a]pyridin-2-yl]-12-methyl-7-oxa-1,11,20-triazatetracyclo[11.5.2.0^{3,5}.0^{16,19}] icosa-13(20),14,16(19),17-tetraen-10-one]
32 | COc1cc(C(=O)N2[C@H]3CC[C@@H]2[C@H](N)C3)cc2nc(-c3cc4ccc5nc4n3C[C@H]3C[C@@H]3COCCC(=O)N[C@@H]5C)n(C)c12 [Example 217, (3~{S},5~{S},12~{R})-18-[5-[(1~{R},2~{R},4~{S})-2-amino-7-azabicyclo[2.2.1]heptane-7-carbonyl]-7-methoxy-1-methyl-benzimidazol-2-yl]-12-methyl-7-oxa-1,11,20-triazatetracyclo[11.5.2.0^{3,5}.0^{16,19}] icosa-13(20),14,16(19),17-tetraen-10-one]
29 | COc1cc(C(=O)N2[C@H]3CC[C@@H]2[C@H](N)C3)cc2nc(-c3cc4ccc5nc4n3C[C@@H]3C[C@H]3COCCC(=O)N[C@@H]5C)n(C)c12 [Example 218, (3~{R},5~{R},12~{R})-18-[5-[(1~{R},2~{R},4~{S})-2-amino-7-azabicyclo[2.2.1]heptane-7-carbonyl]-7-methoxy-1-methyl-benzimidazol-2-yl]-12-methyl-7-oxa-1,11,20-triazatetracyclo[11.5.2.0^{3,5}.0^{16,19}] icosa-13(20),14,16(19),17-tetraen-10-one]
49 | COc1cc(C(=O)N2[C@H]3CC[C@@H]2[C@H](N)C3)cc2nc(-c3cc4ccc5nc4n3CCCCC[C@H](OC)C(C)(C)C(=O)N[C@@H]5C)n(C)c12 [Example 220, (7~{S),11~{R})-17-[5-[(1~{R},2~{R},4~{S})-2-amino-7-azabicyclo[2.2.1]heptane-7-carbonyl]-7-methoxy-1-methyl-benzimidazol-2-yl]-7-methoxy-8,8,11-trimethyl-1,10,19-triazatricyclo[10.5.2.0^{15,18}]nonadeca-12(19),13,15(18),16-tetraen-9-one]
24 | COc1cc(C(=O)N2[C@H]3CC[C@@H]2[C@H](N)C3)cc2nc(-c3cc4ccc5nc4n3C[C@H]3C[C@@H]3CCCCC(=O)N[C@@H]5C)n(C)c12 [Example 226, (3~{S},5~{S},12~{R})-18-[5-[(1~{R},2~{R},4~{S})-2-amino-7-azabicyclo[2.2.1]heptane-7-carbonyl]-7-methoxy-1-methyl-benzimidazol-2-yl]-12-methyl-1,11,20-triazatetracyclo[11.5.2.0^{3,5}.0^{16,19}] icosa-13(20),14,16(19),17-tetraen-10-one]
